Reference: patent US20030199590A1, “Prostaglandin analogues for promotion of hair growth” (priority 2002, published 2003)
Like-named read-outs stand apart in the source and are kept apart here.

Experiments:
[1] = target: T1, FP receptors (Bos taurus, UniProt P37289); assay: FP receptor binding assay ([3H]PGF2α, bovine corpus luteum membranes); conditions: for IC50: Table 1, [3H]PGF2α, bovine corpus luteum membranes, free acid form; for Ki: Table 2, FP receptor binding
T1 construct: Washed total particulate bovine corpus luteum membranes; from tissue; host or cells: bovine corpus luteum membranes
Experimental: Non-specific binding was defined with 1-10 μM unlabeled PGF2α or fluprostenol. The assays were terminated by vacuum filtration (using Whatman GF/B glass fiber filter previously soaked in 0.3% polyethyleneimine) and the data analyzed by a non-linear, iterative, curve-fitting computer program.

[2] = target: T2, FP receptors (Swiss 3T3 cells expressing FP receptors) (Mus musculus, UniProt P43117); assay: FP receptor-mediated phosphoinositide turnover assay; format: cell-based; conditions: for Emax: Swiss-3T3, 1 h, efficacy relative to standard full agonist (100%), read-out: FP functional (%) agonistic activity; for EC50: [3H]-IPs in Swiss 3T3 cells; for % response: efficacy relative to standard
T2 construct: endogenous in cells; host or cells: Swiss 3T3 cells
Experimental: FP receptor-mediated phosphoinositide turnover assay: [^3H]Inositol phosphates ([^3H]-IPs) produced by agonist-mediated activation of phospholipase C in Swiss 3T3 cells expressing FP receptors were quantified as follows. Confluent 3T3 cells were exposed to 1.0-1.5 μCi [^3H]-myo-inositol (18.3 Ci/mmol) in 0.5 ml DMEM for 24-30 hours at 37° C. Then cells were rinsed once with DMEM/F-12 containing 10 mM LiCl, and the agonist stimulation experiment was performed in 0.5 ml of the same medium to facilitate accumulation of [^3H]-IPs. Cells were exposed to the agonist or solvent for 60 min at 37° C. (triplicate determinations), followed by aspiration of the medium and immediate addition of 1 ml of ice-cold 0.1 M formic acid. The plates were kept cold and then frozen. Samples frozen up to one week were thawed prior to chromatographic separation of radiolabeled components. The cell lysates (0.9 ml) were loaded on columns packed with approximately 1 ml AG 1-X8 anion exchange resin. The elution procedure consisted of a wash with 10 ml of H2O, then 8 ml of 50 mM ammonium formate, and finally 4 ml of 1.2 M ammonium formate with 0.1 M formic acid, which was collected in a scintillation vial. To this eluate was added 15 ml of scintillation fluid and the total [^3H]-IPs determined by scintillation counting on a beta-counter. Data were analyzed by the sigmoidal fit function of the Origin Scientific Graphics software (Microcal Software, Northampton, Mass.) to determine agonist potency (EC50 value) and efficacy, relative to the standard cloprostenol.

[3] = Table 1, read-out: FP functional EC50

T1 sequence (P37289 whole entry): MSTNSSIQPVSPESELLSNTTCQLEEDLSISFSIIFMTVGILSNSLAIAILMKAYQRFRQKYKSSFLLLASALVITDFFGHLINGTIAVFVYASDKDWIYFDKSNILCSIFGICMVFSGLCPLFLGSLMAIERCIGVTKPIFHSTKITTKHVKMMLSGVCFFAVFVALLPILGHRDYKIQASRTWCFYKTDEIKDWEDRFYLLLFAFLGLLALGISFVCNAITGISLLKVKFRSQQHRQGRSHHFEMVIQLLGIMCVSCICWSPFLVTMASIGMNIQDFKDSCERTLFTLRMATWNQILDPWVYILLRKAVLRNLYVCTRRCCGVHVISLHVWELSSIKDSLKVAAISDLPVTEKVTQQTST
T2 sequence (P43117 whole entry): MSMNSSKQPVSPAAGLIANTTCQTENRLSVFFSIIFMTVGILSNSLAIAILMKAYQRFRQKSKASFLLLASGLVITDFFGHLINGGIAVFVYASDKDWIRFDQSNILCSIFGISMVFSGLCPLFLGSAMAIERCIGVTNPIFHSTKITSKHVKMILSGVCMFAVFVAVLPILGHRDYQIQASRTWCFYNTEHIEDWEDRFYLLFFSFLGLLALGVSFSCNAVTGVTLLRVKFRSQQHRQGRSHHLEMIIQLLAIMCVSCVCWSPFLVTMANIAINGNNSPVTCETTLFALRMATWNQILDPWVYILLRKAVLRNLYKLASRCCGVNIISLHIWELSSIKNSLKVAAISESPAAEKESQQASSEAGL

SMILES | IC50 [1] [nM] | Emax ([2]; Table 1) [%] | EC50 [2, 3] [nM] | Ki [1] [nM] | EC50 ([2]; Table 2, read-out: EC50) [nM] | % response ([2]; Table 2) [%]
O=C(O)CC/C=C\CC[C@H]1[C@@H](O)CO[C@@H]1/C=C/[C@H](O)COc1ccccc1 [Compound 50] | 5100 | 59 | 252 | – | – | –
O=C(O)CCC/C=C\C[C@H]1[C@@H](O)CO[C@@H]1/C=C/[C@H](O)COc1ccccc1 [Compound 32] | 573 | 100 | 48.6 | – | – | –
O=C(O)CC/C=C\CC[C@H]1[C@@H](O)CO[C@@H]1/C=C/[C@H](O)COc1cccc(C(F)(F)F)c1 [Compound 51] | 9900 | 61 | 781 | – | – | –
O=C(O)CCC/C=C\C[C@H]1[C@@H](O)CO[C@@H]1/C=C/[C@@H](O)COc1ccccc1 [Compound 33] | 640 | 67 | 293 | – | – | –
O=C(O)CCC/C=C\C[C@H]1CC[C@@H](O)[C@@H]1CC[C@@H](O)CCc1ccccc1 [Compound 2] | 310 | 60 | 76.6 | – | – | –
O=C(O)CCC/C=C\C[C@@H]1C(C#C[C@H](O)COc2cccc(Cl)c2)OC[C@@H]1O (stereo partly shown) [Compound 38] | 36000 | – | > 10000 | – | – | –
O=C(O)CCC/C=C\C[C@H]1CC[C@@H](O)[C@@H]1CC[C@@H](O)C1Cc2ccccc2C1 [Compound 11] | 1900 | 60 | 108 | – | – | –
O=C(O)CCC/C=C\C[C@H]1CC[C@@H](O)[C@@H]1CC[C@@H](O)CCc1cccc(Cl)c1 [Compound 8] | 47 | 84 | 6.6 | – | – | –
O=C(O)CC/C=C\CC[C@H]1[C@@H](O)CO[C@@H]1/C=C/[C@@H](O)COc1cccc(Cl)c1 [Compound 40] | 430 | 82 | 23 | – | – | –
O=C(O)CCC/C=C\C[C@@H]1C(C#C[C@@H](O)COc2cccc(Cl)c2)OC[C@@H]1O (stereo partly shown) [Compound 39] | 5100 | 100 | 509 | – | – | –
O=C(O)CCC/C=C\C[C@H]1[C@@H](O)CO[C@@H]1/C=C/[C@@H](O)CCc1ccccc1 [Compound 28] | 1900 | 100 | 80 | – | – | –
O=C(O)CCCCCC[C@H]1C(=O)CO[C@@H]1/C=C/[C@H](O)COc1ccccc1 [Compound 21] | 78000 | – | > 10000 | – | – | –

Results, then the molecule that gave them:

IC50 [1] [nM] | Emax ([2]; Table 1) [%] | EC50 [2, 3] [nM] | Ki [1] [nM] | EC50 ([2]; Table 2, read-out: EC50) [nM] | % response ([2]; Table 2) [%] | SMILES
330 | 83 | 57 | – | – | – | O=C(O)CC/C=C\CC[C@H]1[C@@H](O)CO[C@@H]1/C=C/[C@@H](O)COc1ccccc1 [Compound 52]
– | – | – | 50 | 4 | 100 | O=C(O)CCC/C=C\C[C@@H]1[C@@H](CC[C@@H](O)COc2cccc(Cl)c2)[C@H](O)C[C@@H]1O [Compound 83]
– | – | – | 150 | 11.6 | 99 | O=C(O)CCC/C=C\C[C@@H]1[C@@H](/C=C/[C@H](O)COc2cccc(C(F)(F)F)c2)[C@H](O)C[C@@H]1O [Compound 88]
– | – | – | 91 | 1.4 | 100 | O=C(O)CCC/C=C\C[C@@H]1[C@@H](/C=C/[C@@H](O)COc2cccc(Cl)c2)[C@H](O)C[C@@H]1O [Compound 81]
4200 | 44.5 | 131 | – | – | – | O=C(O)CCC/C=C\C[C@@H]1[C@@H](/C=C/[C@H](F)COc2cccc(C(F)(F)F)c2)[C@H](O)C[C@@H]1O [Compound 76]
1120 | 98 | 96 | – | – | – | O=C(O)CCC/C=C\C[C@@H]1[C@@H](/C=C/[C@H](F)COc2ccccc2)[C@H](O)C[C@@H]1O [Compound 60]
– | – | – | 35 | 3.8 | 96 | O=C(O)CCC/C=C\C[C@@H]1[C@@H](/C=C/[C@@H](O)COc2cccc(C(F)(F)F)c2)[C@H](O)C[C@@H]1O [Compound 82]
160 | 83 | 11.1 | – | – | – | O=C(O)CCC/C=C\C[C@@H]1[C@@H](/C=C/[C@@H](F)COc2cccc(C(F)(F)F)c2)[C@H](O)C[C@@H]1O [Compound 75]
277 | 57 | 56 | – | – | – | O=C(O)CCC/C=C\C[C@@H]1[C@@H](OC[C@@H](O)COc2ccccc2)[C@H](O)C[C@@H]1O [Compound 69]
